Data: patent publication US9125898B2, “Acetam derivatives for pain relief” (NEUROTUNE AG, priority 2008, dated 2015)

Tests used:
[1] = tested on: oxaliplatin induced hyperalgesia in the rat; assay: Oxaliplatin induced hyperalgesia in the rat paw-pressure test; type: in vivo; settings: for Paw pressure, pre-test before all treatments: baseline, drug 100 mg/kg p.o.; for Paw pressure, 1a week - 30 min / Paw pressure, 2a week - 30 min / Paw pressure, 3a week - 30 min / Paw pressure, 3a week - 4 h / Paw pressure, 3a week - 8 h / Paw pressure, 3a week - 24 h: drug 100 mg/kg p.o. once daily
Procedure: Drugs: The following substance was used: NT-13317 (batch No. RR0011-184A1 supplied by Brane Discovery Srl, Gerenzano Italy). NT-13317 was dissolved in DMSO 20%, 10% glucose and administered at the dose of 10, 30 and 100 mg/kg p.o.
Gabapentin (Sigma) was dissolved in 1% CMC (carboxymethylcellulose-Sigma) and orally administered at 100 mg/kg, and dissolved in saline and i.v. administered at 3 mg/kg.
Oxaliplatin model: A peripheral neuropathy was induced in adult rats, by administration of oxaliplatin (Tocris), at 2.4 mg/kg i.p. in saline once a day on days 1, 2, 3, 4, 5, 8, 9, 10, 11, 12, 15, 16, 17, 18, 19 (cumulative dose 36 mg/kg) according to [1].
In the first experiment NT-13317 and gabapentin were given chronically at the dose 100 mg/kg po starting 3 days before oxaliplatin and every day for 5 days/week for 3 weeks.
A dose-response experiment was then performed with NT-13317 (10, 30 and 100 mg/kg po) using the same treatment schedule.
Paw pressure test: Paw mechanical sensitivity was determined using a Randall & Selitto apparatus exerting a force that increases at constant rate (32 g/s). The stimulus at which rats withdrawn the paw was evaluated before and at different times after treatment. Results represent the mean of mechanical thresholds expressed as grams. To avoid any possible damage to the animal paw the maximum applied force was fixed at 240 g.
(§1) Statistical analysis: All experimental results are given as the mean±S.E.M. An analysis of variance, ANOVA, followed by Fisher's protected least significant difference procedure for post hoc comparison, were used to verify significance between two means of behavioral results. Data were analyzed with the StatView software for the Macintosh (1992). P values≦0.05 were considered significant.

[2] = tested on: chronic constriction injury induced hyperalgesia in the rat; assay: Chronic constriction injury induced hyperalgesia in the rat (paw-pressure test); type: in vivo; settings: for Paw pressure, pre-test before all treatments: baseline, drug 100 mg/kg p.o.; for Paw pressure, 5 day 30 min / Paw pressure, 10 day 30 min / Paw pressure, 14 day 30 min / Paw pressure, 14 day 4 h / Paw pressure, 14 day 8 h / Paw pressure, 15 day 24 h / Paw pressure, 18 day 3 days: 100 mg/kg p.o. once a day for 14 days
Procedure: In the repeated administration protocol, NT-13317 was orally administered at 100 mg/kg in 1% CMC once a day for 14 days starting from the day of sciatic nerve ligation.
Peripheral rat mononeuropathy (Chronic constriction injury): Neuropathy was induced according to the procedure described by Bennett and Xie (Bennett G J, Xie Y K. A peripheral mononeuropathy in rat that produces disorders of pain sensation like those seen in man. Pain 1988; 33: 87-107).
Briefly, rats were anaesthetized with chloral hydrate 400 mg/kg intraperitoneally (i.p.); under aseptic conditions, the right common sciatic nerve was exposed at the level of the middle thigh by blunt dissection. Proximal to the trifurcation, the nerve was carefully freed from the surrounding connective tissue and four chromic cat gut ligatures (4-0, Ethicon, Norderstedt, Germany) were tied loosely around it with about 1 mm spacing. After haemostasis was confirmed, the incision was closed in layers. Then animals were allowed to recover from anaesthesia and surgery and were kept one per cage with free access to water and standard laboratory chow.
as §1, with “behavioural” for “behavioral”
Data of mechanical threshold (PWT) were converted to a percentage of the maximal possible effect (% MPE), according to Veneroni, O. et al. as follows: %MPE=(left dose PWT−left pre-dose control PWT)/(left naïve PWT−left pre-dose PWT)*100
The obtained % MPE were employed for ED50 calculation (obtained by Grafit v. 5.0), defined as the dose producing 50% reversal of mechanical allodynia.

NCC1(CC(=O)O)CCCCC1 [GABAPENTIN, Gabapentin, reference compound]
Reduction of mechanical hyperalgesia over three weeks of treatment (in words) ([1]; 100 mg/kg p.o. once daily, 5 days/week for 3 weeks): much lower effect only at the end of the third week
Pharmacodynamic profile at the end of the third week ([1]; gabapentin 100 mg/kg p.o.): sporadic, intermediate efficacy at 30 min
Paw pressure, pre-test before all treatments ([1]; oxaliplatin i.p. group): 61.1 ± 4.0 g
Paw pressure, 1a week - 30 min ([1]; oxaliplatin i.p.): 47.8 ± 5.6 g
Paw pressure, 2a week - 30 min ([1]; oxaliplatin i.p.): 49.0 ± 5.5 g
Paw pressure, 3a week - 30 min ([1]; oxaliplatin i.p.): 59.5 ± 5.5 g
Paw pressure, 3a week - 4 h ([1]; oxaliplatin i.p.): 55.6 ± 4.2 g
Paw pressure, 3a week - 8 h ([1]; oxaliplatin i.p.): 43.8 ± 6.1 g
Paw pressure, 3a week - 24 h ([1]; oxaliplatin i.p.): 42.2 ± 5.5 g
Paw pressure, pre-test before all treatments ([1]; vehicle i.p. (no oxaliplatin) group): 62.7 ± 3.9 g
Paw pressure, 1a week - 30 min ([1]; vehicle i.p. (no oxaliplatin)): 65.6 ± 4.9 g
Paw pressure, 2a week - 30 min ([1]; vehicle i.p. (no oxaliplatin)): 73.7 ± 5.2 g
Paw pressure, 3a week - 30 min ([1]; vehicle i.p. (no oxaliplatin)): 82.3 ± 5.2 g
Paw pressure, 3a week - 4 h ([1]; vehicle i.p. (no oxaliplatin)): 76.2 ± 4.8 g
Paw pressure, 3a week - 8 h ([1]; vehicle i.p. (no oxaliplatin)): 78.2 ± 5.6 g
Paw pressure, 3a week - 24 h ([1]; vehicle i.p. (no oxaliplatin)): 68.7 ± 5.9 g
Paw pressure, pre-test before all treatments ([2]; CCI group): 62.9 ± 3.3 g
Paw pressure, 5 day 30 min ([2]; CCI): 52.4 ± 4.6 g
Paw pressure, 10 day 30 min ([2]; CCI): 52.7 ± 5.6 g
Paw pressure, 14 day 30 min ([2]; CCI): 56.7 ± 6.2 g
Paw pressure, 14 day 4 h ([2]; CCI): 57.1 ± 5.5 g
Paw pressure, 14 day 8 h ([2]; CCI): 62.3 ± 6.5 g
Paw pressure, 15 day 24 h ([2]; CCI): 59.6 ± 5.7 g
Paw pressure, 18 day 3 days ([2]; CCI): 58.2 ± 5.5 g
Paw pressure, pre-test before all treatments ([2]; SHAM group): 61.8 ± 2.9 g
Paw pressure, 5 day 30 min ([2]; SHAM): 63.2 ± 4.1 g
Paw pressure, 10 day 30 min ([2]; SHAM): 69.2 ± 5.1 g
Paw pressure, 14 day 30 min ([2]; SHAM): 71.2 ± 6.3 g
Paw pressure, 14 day 4 h ([2]; SHAM): 69.2 ± 5.6 g
Paw pressure, 14 day 8 h ([2]; SHAM): 70.4 ± 5.9 g
Paw pressure, 15 day 24 h ([2]; SHAM): 68.5 ± 5.8 g
Paw pressure, 18 day 3 days ([2]; SHAM): 66.4 ± 4.8 g
Effect on paw pressure test after the last administration (in words) ([2]; p.o. 100 mg/kg once a day for 14 days from the day of sciatic nerve ligation): still active after 72 hr
